Here are results for 18 compounds from paper PMC8875242, “Evaluation of the Potency of Anti-HIV and Anti-HCV Drugs to Inhibit P-Glycoprotein Mediated Efflux of Digoxin in Caco-2 Cell Line and Human Precision-Cut Intestinal Slices” (Pharmaceuticals, 2022).

Where a name gives a salt, the structure may show the parent alone. Read-outs that look alike come from different tables or passages of the source.

A word on the efflux ratio: it is the permeability from basolateral to apical divided by that in the opposite direction, in the common usage. What is called IC50 is the concentration that gives 50% inhibition.

The target in data set [1] is T1, ABCB1 (Homo sapiens, UniProt P08183). Further details: confirming the functional expression of ABCB1 in the Caco-2 cells; host or cells: Caco-2; method as in PMID 31481446. As to conditions: Caco-2, cited from earlier work.
Data set [2] concerns the target T1, ABCB1. As to the kind of experiment: Ex vivo [^3H]-digoxin accumulation in hPCIS prepared from the jejunum. The method, then: Ex vivo accumulation assays were performed as previously described. Directly after surgery, the resected part of the human jejunum was placed in cold (4 °C) Krebs–Henseleit buffer oxygenated with carbogen gas. The muscle layer was removed, and the remaining mucosa was cut into fragments measuring approximately 5 by 20 mm, which were then embedded in a 3% agarose solution (3% (wt/vol) in 0.9% NaCl, 37 °C). PCIS of approximately 300 µm thickness were cut using a Krumdieck tissue slicer (Alabama R&D, Munford, AL, USA). […] Both incubation steps were conducted in a humidified atmosphere of […] and 5% CO2 at 37 °C [32, 34, 35]. The accumulation of [^3H]-digoxin was stopped after 2 h of incubation by washing the slices twice in the Krebs–Henseleit cold buffer (4 °C). […] The samples were then centrifuged (10 min; 7800 g). Concentrations of [^3H]-digoxin in the supernatant samples (300 µL) were assessed after mixing them with 1.5 mL of Ultima Gold™ via scintillation counting (Tri-Carb 2900TR liquid scintillation analyzer, Packard Bioscience). The pellets obtained during centrifugation were dried overnight at 37 °C and then solubilized in 200 µL of 5 M NaOH for 24 h. Milli-Q water was then added to the samples to achieve a NaOH concentration of 1 M. The protein content was measured using a bicinchoninic acid protein kit (Thermo Fisher Scientific, Waltham, MA, USA). The measured [^3H]-digoxin concentrations were normalized against the protein content.

Another data set in a line: Solubility. In kind it is physicochemical. To be noted: incubation medium, 0.1% DMSO. The method, then: The stock solutions were stored at −20 °C before use. The final concentration of DMSO was 0.1% in all experiments. The final concentrations of EtOH in hPCIS and Caco-2 cells were 0.03% and 0.012%, respectively.
The conditions of data set [3]: cited from earlier work.
Data set [4] deals with T1, ABCB1. The data set can be described thus: Bidirectional transport of [^3H]-digoxin across Caco-2 monolayers. The method, then:
Caco-2 cells were seeded at a density of 3 × 10^5 cells per insert and cultured for 21 days in a standard cultivation medium containing 1% penicillin–streptomycin. The medium was changed every other day, during which the transepithelial electrical resistance (TEER) across the cell monolayers was measured using a Millicell-ERS instrument (Millipore Corporation, Bedford, MA, USA). […] For the bidirectional permeability assay, a Hanks’ balanced salt solution buffer was used. The pH in the A compartment was adjusted to 6.5 using a methanesulfonic acid solution, while that in the B compartment was adjusted to 7.4 using a HEPES solution [34, 80]. The volumes used were 0.5 mL and 1.5 mL in compartments A and B, respectively. To improve the reproducibility of the results, the receiver compartment always contained 1% bovine serum albumin, as previously recommended. […] Samples (200 µL) were collected after 1 and 2 h from the receiver compartment; after the first collection, fresh receiver solution was added to the receiver compartment to maintain the original volume. The concentration of [^3H]-digoxin was quantified using a Tri-Carb 2900TR liquid scintillation analyzer (Packard Bioscience, Meriden, CT, USA). Its concentration in the samples collected during Caco-2 experiments was measured after adding 1 mL of Ultima Gold^TM Cocktail. A to B and B to A transport were evaluated in terms of an apparent permeability coefficient (Papp), calculated using the equation in [80, 81]. […] The efflux ratio (rPapp) was then calculated using the equation [80, 82]:rPapp = (Papp B to A)/(Papp A to B)(2)
On the technique in general: Caco-2 monolayers are a common model of the intestinal barrier.

The target in data set [5] is T1, ABCB1. More on the design: confirming the functional expression of ABCB1 in the Caco-2 cells; host or cells: Caco-2; method as in PMID 31481446. To be noted: hPCIS, cited from earlier work.
In data set [6] the test system is ABCB1. To be noted: suggested; cited from earlier work.
The test system of data set [7] is ABCB1. Further details: method as in PMID 23132334. To be noted: apparent activity at 100 µM; cited from earlier work.

T1 sequence (P08183 whole entry, the tested form may be a part): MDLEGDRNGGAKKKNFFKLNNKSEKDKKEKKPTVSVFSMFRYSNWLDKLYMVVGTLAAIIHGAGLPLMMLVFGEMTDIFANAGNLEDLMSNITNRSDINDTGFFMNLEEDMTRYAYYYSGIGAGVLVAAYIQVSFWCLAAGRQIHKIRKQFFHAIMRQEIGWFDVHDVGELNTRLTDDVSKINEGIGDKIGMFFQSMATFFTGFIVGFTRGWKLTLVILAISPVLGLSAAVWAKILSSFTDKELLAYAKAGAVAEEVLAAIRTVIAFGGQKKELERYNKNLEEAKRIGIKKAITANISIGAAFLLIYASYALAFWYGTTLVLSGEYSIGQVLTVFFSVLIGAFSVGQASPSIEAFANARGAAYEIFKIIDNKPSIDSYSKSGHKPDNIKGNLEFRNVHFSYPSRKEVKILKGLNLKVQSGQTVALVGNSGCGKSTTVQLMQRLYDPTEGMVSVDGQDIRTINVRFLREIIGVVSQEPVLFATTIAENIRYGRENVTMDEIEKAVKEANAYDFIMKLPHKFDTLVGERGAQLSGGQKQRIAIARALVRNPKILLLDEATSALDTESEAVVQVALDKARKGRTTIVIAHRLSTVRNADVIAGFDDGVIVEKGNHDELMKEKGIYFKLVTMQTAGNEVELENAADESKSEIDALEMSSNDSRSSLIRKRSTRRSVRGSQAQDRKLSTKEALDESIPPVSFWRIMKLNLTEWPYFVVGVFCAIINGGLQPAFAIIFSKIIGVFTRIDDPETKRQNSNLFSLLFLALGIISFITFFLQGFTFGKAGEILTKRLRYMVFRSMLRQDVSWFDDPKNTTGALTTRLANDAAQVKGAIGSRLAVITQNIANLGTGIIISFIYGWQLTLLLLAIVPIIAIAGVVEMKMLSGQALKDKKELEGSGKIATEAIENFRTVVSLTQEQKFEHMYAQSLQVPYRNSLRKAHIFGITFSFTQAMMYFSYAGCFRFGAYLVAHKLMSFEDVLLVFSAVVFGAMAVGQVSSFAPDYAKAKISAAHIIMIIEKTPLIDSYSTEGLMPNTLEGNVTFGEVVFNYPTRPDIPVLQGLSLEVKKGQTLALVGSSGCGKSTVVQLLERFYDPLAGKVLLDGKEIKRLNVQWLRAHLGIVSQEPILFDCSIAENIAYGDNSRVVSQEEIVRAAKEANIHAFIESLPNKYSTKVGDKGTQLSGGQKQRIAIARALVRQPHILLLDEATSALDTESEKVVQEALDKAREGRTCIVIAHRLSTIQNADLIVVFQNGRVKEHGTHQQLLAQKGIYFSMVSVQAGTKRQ

For the compound `COC(=O)N[C@H](C(=O)N1CCC[C@H]1c1nc(-c2ccc(-c3ccc(-c4c[nH]c([C@@H]5CCCN5C(=O)[C@@H](NC(=O)OC)C(C)C)n4)cc3)cc2)c[nH]1)C(C)C` [Daclatasvir, daclatasvir], the “RHD123 Inhibition (bidirectional transport)” value on ABCB1 [1] (compound 20 µM) is “YES”. Also, at ABCB1 [2] (compound 20 µM, hPCIS), the “Digoxin Inhibition in human PCIS (in words)” value is “YES”.
As to `COC(=O)N[C@H](C(=O)N1CCC[C@H]1c1nc(-c2ccc3c(c2)O[C@@H](c2ccccc2)n2c-3cc3cc(-c4c[nH]c([C@@H]5CCCN5C(=O)[C@@H](NC(=O)OC)C(C)C)n4)ccc32)c[nH]1)C(C)C` [Elbasvir, elbasvir], the “Solubility (in words)” value in “Solubility” was “low solubility”. In addition, the “Digoxin Inhibition in human PCIS (in words)” value at ABCB1 [2] (compound 5 µM, hPCIS) is reported as “no inhibition”. Further, in data set [3] (humans), the “Increase in plasma AUC (intestinal ABCB1 inhibition)” value is listed as 11%.
Turning to `Cc1cc(C#N)cc(C)c1Oc1nc(Nc2ccc(C#N)cc2)nc(N)c1Br` [Etravirine, etravirine], the “Solubility (in words)” value in the data set “Solubility” is recorded as “low solubility”. Moreover, the “Digoxin Inhibition in human PCIS (in words)” value on ABCB1 [2] (compound 20 µM, hPCIS) was “did not inhibit”. Further, on ABCB1 [4] (compound 20 µM), the “Digoxin Inhibition (bidirectional transport, in words)” value was “YES”.
In the case of `CC(C)OC(=O)[C@H](C)N[P@](=O)(OC[C@H]1O[C@@H](n2ccc(=O)[nH]c2=O)[C@](C)(F)[C@@H]1O)Oc1ccccc1` [Sofosbuvir, sofosbuvir], at ABCB1 [2], the “Digoxin Inhibition in human PCIS (in words)” value is listed as “no effect”.
For the compound `COC(=O)N[C@H](C(=O)N[C@@H](Cc1ccccc1)[C@@H](O)CN(Cc1ccc(-c2ccccn2)cc1)NC(=O)[C@@H](NC(=O)OC)C(C)(C)C)C(C)(C)C` [Atazanavir, atazanavir], at ABCB1 [1] (compound 50 µM), the “RHD123 Inhibition (bidirectional transport)” value is reported as “YES”. Besides, at ABCB1 [5] (compound 50 µM), the “RHD123 Inhibition in human PCIS” value was “YES”. The “Digoxin Inhibition in human PCIS (in words)” value at ABCB1 [2] (compound 20 µM, hPCIS) is given as “did not inhibit”; at ABCB1 [2] (compound 50 µM, hPCIS) it was “YES”. The “Digoxin Inhibition (bidirectional transport, in words)” value at ABCB1 [4] (compound 50 µM) is reported as “YES”.
As for `Cc1cccc(C)c1OCC(=O)N[C@@H](Cc1ccccc1)[C@@H](O)C[C@H](Cc1ccccc1)NC(=O)[C@H](C(C)C)N1CCCNC1=O` [Lopinavir, lopinavir], on ABCB1 [5] (compound 50 µM), the “RHD123 Inhibition in human PCIS” value is listed as “YES”. In addition, the “Digoxin Inhibition in human PCIS (in words)” value was “did not induce any detectable inhibition” at ABCB1 [2] (compound 20 µM, hPCIS) and “YES” on ABCB1 [2] (compound 50 µM, hPCIS).
Take `Nc1nc(NC2CC2)c2ncn([C@H]3C=C[C@@H](CO)C3)c2n1` [Abacavir, abacavir]: the “Digoxin Inhibition in human PCIS (in words)” value at ABCB1 [2] (compound 100 µM, hPCIS) is “did not induce any detectable inhibition”. The “Digoxin Inhibition (bidirectional transport, in words)” value on ABCB1 [4] (compound 100 µM) is listed as “No significant effect”.
Consider `Cc1cc(/C=C/C#N)cc(C)c1Nc1ccnc(Nc2ccc(C#N)cc2)n1` [Rilpivirine, rilpivirine], for which, on ABCB1 [2] (compound 20 µM, hPCIS), the “Digoxin Inhibition in human PCIS (in words)” value is on record as “did not inhibit”. For the same compound, in data set [3] (dose of 25 mg/day), the “Effect on the pharmacokinetics of digoxin or tenofovir DF in vivo” value is “does not significantly affect”. The “Digoxin Inhibition (bidirectional transport, in words)” value on ABCB1 [4] (compound 20 µM) is “YES”.
On to `C[C@H]1O[C@@H](O[C@H]2[C@@H](O)C[C@H](O[C@H]3[C@@H](O)C[C@H](O[C@H]4CC[C@@]5(C)[C@H](CC[C@@H]6[C@@H]5C[C@@H](O)[C@]5(C)[C@@H](C7=CC(=O)OC7)CC[C@]65O)C4)O[C@@H]3C)O[C@@H]2C)C[C@H](O)[C@@H]1O` [Digoxin, digoxin], for which, on ABCB1 [4] (human), the efflux ratio at 2 h, 6 nM stood at 9.53 ± 2.22.
Turning to `C=C[C@@H]1C[C@]1(NC(=O)[C@@H]1C[C@@H]2CN1C(=O)[C@H](C(C)(C)C)NC(=O)O[C@@H]1C[C@H]1CCCCCc1nc3ccc(OC)cc3nc1O2)C(=O)NS(=O)(=O)C1CC1.O` [Grazoprevir, grazoprevir], at ABCB1 [2], the “Digoxin Inhibition in human PCIS (in words)” value was “increased [^3H]-digoxin uptake”.
For `COC(=O)N[C@H](C(=O)N1CC2(CC2)C[C@H]1c1ncc(-c2ccc3c(c2)C(F)(F)c2cc(-c4ccc5nc([C@@H]6[C@H]7CC[C@H](C7)N6C(=O)[C@@H](NC(=O)OC)C(C)C)[nH]c5c4)ccc2-3)[nH]1)C(C)C` [Ledipasvir, ledipasvir], the “RHD123 Inhibition (bidirectional transport)” value at ABCB1 [1] (compound 50 µM) is “YES”. Also, the “Solubility (in words)” value in the data set “Solubility” was “low solubility”. The “Digoxin Inhibition in human PCIS (in words)” value on ABCB1 [2] (compound 20 µM, hPCIS) is “no inhibition”; at ABCB1 [2] (compound 50 µM, hPCIS), “no inhibition”. Also, at ABCB1 [4] (compound 50 µM), the “Digoxin Inhibition (bidirectional transport, in words)” value is given as “YES”.
Regarding `COC[C@H]1C[C@@H](c2ncc(-c3ccc4c(c3)COc3cc5c(ccc6nc([C@@H]7CC[C@H](C)N7C(=O)[C@@H](NC(=O)OC)C(C)C)[nH]c65)cc3-4)[nH]2)N(C(=O)[C@H](NC(=O)OC)c2ccccc2)C1` [Velpatasvir, velpatasvir], in the data set with ABCB1 [6], the IC50 is around 20.6 µM. For the same compound, the “Solubility (in words)” value in the data set “Solubility” is recorded as “limited solubility”. In data set [3] (healthy volunteers), the “Increase of digoxin exposure” value was 34%. The “Digoxin Inhibition (bidirectional transport, in words)” value at ABCB1 [4] (compound 5 µM) is “No significant effect”.
`CC(C)CN(C[C@@H](O)[C@H](Cc1ccccc1)NC(=O)O[C@H]1CO[C@H]2OCC[C@H]21)S(=O)(=O)c1ccc(N)cc1` [Darunavir, darunavir]: at ABCB1 [2] (compound 50 µM, hPCIS), the “Digoxin Inhibition in human PCIS (in words)” value is on record as “did not inhibit”.
On to maraviroc, for which, at ABCB1 [1] (compound 100 µM), the “RHD123 Inhibition (bidirectional transport)” value is “YES”. The “Digoxin Inhibition in human PCIS (in words)” value at ABCB1 [2] (compound 100 µM, hPCIS) was “did not induce any detectable inhibition”. Besides, the “Digoxin Inhibition (bidirectional transport, in words)” value at ABCB1 [4] (compound 100 µM) was “No significant effect”.
As to `Cc1cn([C@H]2C[C@H](N=[N+]=[N-])[C@@H](CO)O2)c(=O)[nH]c1=O` [Zidovudine, zidovudine], the “Digoxin Inhibition in human PCIS (in words)” value at ABCB1 [2] (compound 100 µM, hPCIS) is “did not induce any detectable inhibition”. Moreover, the “Digoxin Inhibition (bidirectional transport, in words)” value on ABCB1 [4] (compound 100 µM) is “No significant effect”.
Turning to `C[C@@H]1CCO[C@H]2Cn3cc(C(=O)NCc4ccc(F)cc4F)c(=O)c(O)c3C(=O)N12` [Dolutegravir, dolutegravir], in the data set “Solubility”, the “Solubility (in words)” value was “limited solubility”. Moreover, the “Digoxin Inhibition in human PCIS (in words)” value at ABCB1 [2] (compound 10 µM, hPCIS) is “did not induce any detectable inhibition”. The “Digoxin Inhibition (bidirectional transport, in words)” value at ABCB1 [4] (compound 10 µM) was “No significant effect”. Besides, in the data set on ABCB1 [7], the “Inhibition of digoxin transport in MDCK-ABCB1 cells” value is “weak inhibitor”.
In the case of `CC(C)(C)NC(=O)[C@@H]1C[C@@H]2CCCC[C@@H]2CN1C[C@@H](O)[C@H](Cc1ccccc1)NC(=O)[C@H](CC(N)=O)NC(=O)c1ccc2ccccc2n1` [Saquinavir, saquinavir], at ABCB1 [1] (compound 20 µM), the “RHD123 Inhibition (bidirectional transport)” value was “YES”. Besides, on ABCB1 [5] (compound 20 µM), the “RHD123 Inhibition in human PCIS” value is reported as “YES”. Moreover, the “Digoxin Inhibition in human PCIS (in words)” value on ABCB1 [2] (compound 5 µM, hPCIS) was “did not induce any detectable inhibition”; on ABCB1 [2] (compound 20 µM, hPCIS), “YES”. At ABCB1 [4] (compound 20 µM), the “Digoxin Inhibition (bidirectional transport, in words)” value is on record as “YES”.
In the case of `CC(C)OC(=O)OCOP(=O)(CO[C@H](C)Cn1cnc2c(N)ncnc21)OCOC(=O)OC(C)C` [Tenofovir DF, tenofovir disoproxil fumarate], the “Digoxin Inhibition in human PCIS (in words)” value on ABCB1 [2] (compound 100 µM, hPCIS) is “did not induce any detectable inhibition”.
